Test results as given in paper PMC9492542, “Brain-restricted mTOR inhibition with binary pharmacology” (Nature, 2022).
Values joined by “and” are separate entries in the source; they are usually repeats but may differ in a detail not shown here. Equal values may be shown once.

Columns and labels:
[1] = Cellular activity of FKBP-binding bifunctional kinase inhibitors, with or without RapaBlock; format: cell-based
K562 CRISPRi cells = test: Cellular dye (TAMRA) retention assay by flow cytometry; format: cell-based
Procedure: Untransduced (no virus or sgRNA^–) and sgRNA expression vector-transduced (sgRNA^+) K562 CRISPRi cells were mixed in a 1:1 ratio, plated in 48-well plates and incubated overnight. Cell mixtures were treated with the indicated TAMRA-linked compounds (300 μl final volume) and incubated for 24 h. Plates were placed over ice and 200 μl of each compound–cell mixture was transferred to a 96-well U-bottom plate. Cells were pelleted at 500g for 5 min and subsequently washed 2× with ice-cold FACS buffer (PBS + 1% BSA + 0.1% NaN3). Cells were resuspended in 200 μl of ice-cold FACS buffer and assessed using an Attune NxT (Thermo Fisher Scientific). Relative uptake of TAMRA-linked compounds was determined by comparing TAMRA fluorescence (561-nm excitation laser and 585/16-nm emission filter) between sgRNA^– and sgRNA^+ cells within each well.

human PBMCs [2] = test: Proliferation of anti-CD3/anti-CD28 stimulated PBMCs (120 h); format: cell-based; parameters: PBMC cell proliferation: unit not given here
human PBMCs [3] = test: IL-2 secretion of stimulated PBMCs (sandwich ELISA); format: cell-based; parameters: unit not given here
MTORC1 = conditions: read-out: Kd4 (drug binding to MTORC1 without FKBP); ref Banaszynski et al, PMID 15796538; cited from earlier work
[4] = 0.005081 nM Rapamycin, +10 µM RapaBlock
[5] = 0.005081 nM Rapamycin, No RapaBlock
[6] = 0.015242 nM Rapamycin, +10 µM RapaBlock
[7] = 0.015242 nM Rapamycin, No RapaBlock
[8] = 0.045725 nM Rapamycin, +10 µM RapaBlock
[9] = 0.045725 nM Rapamycin, No RapaBlock
[10] = 0.137174 nM Rapamycin, No RapaBlock
[11] = 0.411523 nM Rapamycin, +10 µM RapaBlock
[12] = 0.411523 nM Rapamycin, No RapaBlock
[13] = 1.23457 nM Rapamycin, No RapaBlock
[14] = 3.7037 nM Rapamycin, +10 µM RapaBlock
[15] = 3.7037 nM Rapamycin, No RapaBlock
[16] = 11.1111 nM Rapamycin, +10 μM RapaBlock
[17] = 11.1111 nM Rapamycin, No RapaBlock
[18] = 33.3333 nM Rapamycin, +10 μM RapaBlock
[19] = 33.3333 nM Rapamycin, No RapaBlock
[20] = 100 nM Rapamycin, +10 μM RapaBlock

In the case of CCC(C)(C)C(=O)C(=O)N1CCCC[C@H]1C(=O)O[C@H](CCc1ccc(OC)c(OC)c1)c1cccc(NC(=O)CCC(=O)N2CCN(c3cc(Nc4ncc(C(=O)Nc5c(C)cccc5Cl)s4)nc(C)n3)CC2)c1 [SLF-Dasatinib], the “kinase inhibitor activity in cells” value [1] is reported as “did not have kinase inhibitor activity in cells”.

In the case of CO[C@H]1C[C@@H](C)C/C(C)=C/[C@@H](CCCC(=O)N2CCN(C(=O)c3ccc(C(=O)[O-])c(-c4c5ccc(=[N+](C)C)cc-5oc5cc(N(C)C)ccc45)c3)CC2)C(=O)C[C@H](O)[C@@H](C)[C@@H](/C(C)=C/[C@@H]2CC[C@@H](O)[C@H](OC)C2)OC(=O)[C@@H]2CCCCN2C(=O)C(=O)[C@]2(O)O[C@H]1[C@@H](OC)C[C@H]2C [FK-TAMRA], the “Median TAMRA signal, fold change sgRNA+/sgRNA-” value (K562 CRISPRi cells; FKBP12 sg1, 1 nM compound) is reported as 0.94 ×, the “Median TAMRA signal, fold change sgRNA+/sgRNA-” value (K562 CRISPRi cells; FKBP12 sg1, 100 nM compound) is reported as 0.17 × and the “Median TAMRA signal, fold change sgRNA+/sgRNA-” value (K562 CRISPRi cells; FKBP12 sg2, 1 nM compound) is reported as 0.95 ×. The “Median TAMRA signal, fold change sgRNA+/sgRNA-” value (K562 CRISPRi cells; FKBP12 sg2, 100 nM compound) was 0.23 ×, the “Median TAMRA signal, fold change sgRNA+/sgRNA-” value (K562 CRISPRi cells; NegCtrl sg, 1 nM compound) was 1.00 × and the “Median TAMRA signal, fold change sgRNA+/sgRNA-” value (K562 CRISPRi cells; NegCtrl sg, 100 nM compound) was 1.00 ×.

In the case of CO[C@H]1C[C@@H]2CC[C@@H](C)[C@@](O)(O2)C(=O)C(=O)N2CCCC[C@H]2C(=O)O[C@H]([C@H](C)C[C@@H]2CC[C@@H](O)[C@H](OC)C2)CC(=O)[C@H](C)/C=C(\C)[C@@H](O)[C@@H](OC)C(=O)[C@H](C)C[C@H](C)/C=C/C=C/C=C/1C [Rapamycin], the PBMC cell proliferation (human PBMCs [2]; [4]) is reported as 90.8, the PBMC cell proliferation (human PBMCs [2]; [5]) is reported as 89.3 and 86.4 and 86.7 and the PBMC cell proliferation (human PBMCs [2]; [6]) is reported as 94.6. For the same molecule, the PBMC cell proliferation (human PBMCs [2]; [7]) was 70.2 and 84.2 and 80.1, the PBMC cell proliferation (human PBMCs [2]; [8]) was 99.9 and the PBMC cell proliferation (human PBMCs [2]; [9]) was 58.9 and 71.7 and 68.2. For the same molecule, the PBMC cell proliferation (human PBMCs [2]; [10]) was 55.1 and 66 and 63.4, the PBMC cell proliferation (human PBMCs [2]; [11]) was 100.4 and the PBMC cell proliferation (human PBMCs [2]; [12]) was 48.5 and 57.3 and 55.8. For the same molecule, the PBMC cell proliferation (human PBMCs [2]; [13]) was 43.2 and 50.6 and 45.3, the PBMC cell proliferation (human PBMCs [2]; [14]) was 92 and 97.7 and the PBMC cell proliferation (human PBMCs [2]; [15]) was 44.5 and 45.4 and 43.4. The PBMC cell proliferation (human PBMCs [2]; [16]) was 99 and 90.8 and 96.3, the PBMC cell proliferation (human PBMCs [2]; [17]) was 42 and 45.8 and 42.6 and the PBMC cell proliferation (human PBMCs [2]; [18]) was 96.2 and 95.1 and 85.5. For the same molecule, the PBMC cell proliferation (human PBMCs [2]; [19]) was 41.2 and 44.7 and 42.3, the PBMC cell proliferation (human PBMCs [2]; [20]) was 73.2 and 69.6 and 68.3 and the PBMC cell proliferation (human PBMCs [2]; 100 nM Rapamycin, No RapaBlock) was 32 and 34 and 31.5. The IL-2 secretion (human PBMCs [3]; [4]) was 3684.01 and 3841.04 and 3311.59, the IL-2 secretion (human PBMCs [3]; [5]) was 3505.26 and 3941.8 and 3950.69 and the IL-2 secretion (human PBMCs [3]; [6]) was 3960.64 and 4023.71 and 3669.35. The IL-2 secretion (human PBMCs [3]; [7]) was 3568.59 and 3802.04 and 3829, the IL-2 secretion (human PBMCs [3]; [8]) was 3856.22 and 4056.95 and 3791.84 and the IL-2 secretion (human PBMCs [3]; [9]) was 3351.9 and 3536.4 and 3552.37. The IL-2 secretion (human PBMCs [3]; 0.137174 nM Rapamycin, +10 µM RapaBlock) was 4033.13 and 3577.76 and 4020.83, the IL-2 secretion (human PBMCs [3]; [10]) was 2937.87 and 3159.28 and 3403.45 and the IL-2 secretion (human PBMCs [3]; [11]) was 4004.34 and 3499.5 and 3861.19. For the same molecule, the IL-2 secretion (human PBMCs [3]; [12]) was 2246.17 and 2618.32 and 2523.84, the IL-2 secretion (human PBMCs [3]; 1.23457 nM Rapamycin, +10 µM RapaBlock) was 4301.65 and 4395.86 and 4103.8 and the IL-2 secretion (human PBMCs [3]; [13]) was 1538.76 and 1946.24 and 1803.35. For the same molecule, the IL-2 secretion (human PBMCs [3]; [14]) was 4066.89 and 3684.01 and 4230.73, the IL-2 secretion (human PBMCs [3]; [15]) was 1476.21 and 1624.34 and 1751.53 and the IL-2 secretion (human PBMCs [3]; [16]) was 4063.23 and 3946.51 and 4144.88. The IL-2 secretion (human PBMCs [3]; [17]) was 1251.92 and 1234.65 and 1398.74, the IL-2 secretion (human PBMCs [3]; [18]) was 4013.77 and 3518.61 and 4247.74 and the IL-2 secretion (human PBMCs [3]; [19]) was 908.82 and 1132.58 and 1090.71. The IL-2 secretion (human PBMCs [3]; [20]) was 4023.19 and 3609.68 and 3592.67, the IL-2 secretion (human PBMCs [3]; 100 nM Rapamycin, No RapaBlock) was 580.372 and 339.335 and 575.923 and the Kd (MTORC1) was 26 µM.
